Columns and labels:
[1] = molecular target: Norepinephrine transporter (Rattus norvegicus, UniProt Q9WTR4); test: The binding affinity at the Norepinephrine transporter reuptake sites determined using competition binding assay
[2] = The binding affinity at the Histamine H1 receptor determined using [3H]pyrilamine; parameters: species or system Cavia porcellus
Rattus norvegicus [3] = test: The increase in the extracellular levels of 5-HIAA in the rat ventral hippocampus at a dose of 2.5 mg/kg sc measured by in vivo microdialysis; assay type: functional; conditions: route subcutaneous
Rattus norvegicus [4] = test: The increase in the extracellular levels of DOPAC in the rat ventral hippocampus at a dose of 2.5 mg/kg sc measured by in vivo microdialysis; assay type: functional; conditions: route subcutaneous
[5] = molecular target: T1, Adrenergic receptor alpha-1 (Rattus norvegicus, UniProt P15823+P23944+P43140); test: The binding affinity at Alpha-1 adrenergic receptor determined using [3H]prazosin; assay type: protein assay
T1 sequence (P15823 whole entry): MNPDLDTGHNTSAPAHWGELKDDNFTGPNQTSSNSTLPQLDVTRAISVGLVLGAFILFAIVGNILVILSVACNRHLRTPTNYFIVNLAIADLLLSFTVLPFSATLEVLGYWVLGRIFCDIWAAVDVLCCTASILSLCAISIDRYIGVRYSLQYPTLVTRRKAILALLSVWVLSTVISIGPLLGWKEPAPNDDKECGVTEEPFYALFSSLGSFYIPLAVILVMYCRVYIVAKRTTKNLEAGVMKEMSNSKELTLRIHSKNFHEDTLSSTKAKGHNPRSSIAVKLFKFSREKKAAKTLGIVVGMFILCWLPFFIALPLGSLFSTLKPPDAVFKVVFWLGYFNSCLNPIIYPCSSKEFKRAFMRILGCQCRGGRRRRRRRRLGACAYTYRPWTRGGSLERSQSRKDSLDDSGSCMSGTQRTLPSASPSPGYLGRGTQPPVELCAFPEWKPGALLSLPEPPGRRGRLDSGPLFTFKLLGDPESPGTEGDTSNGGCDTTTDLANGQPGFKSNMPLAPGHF
T1 sequence (P23944 whole entry): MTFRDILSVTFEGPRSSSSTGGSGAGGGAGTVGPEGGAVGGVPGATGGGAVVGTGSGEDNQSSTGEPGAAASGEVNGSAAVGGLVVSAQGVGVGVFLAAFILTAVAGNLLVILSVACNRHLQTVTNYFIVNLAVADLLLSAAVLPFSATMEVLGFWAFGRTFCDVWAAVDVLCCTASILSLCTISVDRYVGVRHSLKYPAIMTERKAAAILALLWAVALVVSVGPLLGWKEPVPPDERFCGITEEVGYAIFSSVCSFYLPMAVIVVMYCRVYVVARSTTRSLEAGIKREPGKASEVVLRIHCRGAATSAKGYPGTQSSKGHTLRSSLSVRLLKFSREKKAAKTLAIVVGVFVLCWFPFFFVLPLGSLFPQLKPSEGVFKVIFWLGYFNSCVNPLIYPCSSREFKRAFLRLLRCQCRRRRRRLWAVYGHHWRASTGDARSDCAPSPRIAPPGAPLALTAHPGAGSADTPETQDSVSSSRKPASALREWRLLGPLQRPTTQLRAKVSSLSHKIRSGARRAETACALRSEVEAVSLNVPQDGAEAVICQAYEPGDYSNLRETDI
T1 sequence (P43140 whole entry): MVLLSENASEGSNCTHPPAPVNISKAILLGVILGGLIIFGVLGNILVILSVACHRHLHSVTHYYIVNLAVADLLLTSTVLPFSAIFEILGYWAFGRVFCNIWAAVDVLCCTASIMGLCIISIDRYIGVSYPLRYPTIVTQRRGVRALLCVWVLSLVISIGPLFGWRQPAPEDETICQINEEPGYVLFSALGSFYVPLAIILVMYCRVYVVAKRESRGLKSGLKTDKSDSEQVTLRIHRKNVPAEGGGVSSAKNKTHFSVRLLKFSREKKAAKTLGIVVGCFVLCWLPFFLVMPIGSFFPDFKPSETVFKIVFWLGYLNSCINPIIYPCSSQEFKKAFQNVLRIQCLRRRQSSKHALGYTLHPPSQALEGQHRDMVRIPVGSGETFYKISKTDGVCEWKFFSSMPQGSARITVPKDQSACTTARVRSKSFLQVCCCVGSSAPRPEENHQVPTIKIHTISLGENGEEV

Rattus norvegicus [6] = test: The increase in the extracellular levels of NA in the rat ventral hippocampus at a dose of 5.0 mg/kg sc measured by in vivo microdialysis; assay type: functional; conditions: route subcutaneous

Norepinephrine transporter, sequence (Q9WTR4 whole entry): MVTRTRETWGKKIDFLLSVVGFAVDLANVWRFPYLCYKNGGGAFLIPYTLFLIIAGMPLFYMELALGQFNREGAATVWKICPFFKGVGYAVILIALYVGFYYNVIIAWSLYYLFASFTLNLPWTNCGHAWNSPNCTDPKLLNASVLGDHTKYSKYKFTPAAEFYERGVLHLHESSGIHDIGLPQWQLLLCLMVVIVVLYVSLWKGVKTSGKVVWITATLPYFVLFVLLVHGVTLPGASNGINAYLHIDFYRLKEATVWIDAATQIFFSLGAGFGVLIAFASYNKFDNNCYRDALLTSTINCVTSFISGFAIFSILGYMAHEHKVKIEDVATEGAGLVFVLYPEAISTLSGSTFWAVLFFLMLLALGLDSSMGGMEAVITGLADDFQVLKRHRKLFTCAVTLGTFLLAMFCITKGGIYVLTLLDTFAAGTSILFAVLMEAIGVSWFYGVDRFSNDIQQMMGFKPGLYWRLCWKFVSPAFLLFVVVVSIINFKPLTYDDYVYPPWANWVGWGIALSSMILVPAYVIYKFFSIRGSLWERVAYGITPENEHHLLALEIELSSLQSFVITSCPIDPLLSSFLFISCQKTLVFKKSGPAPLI

Row | SMILES | IC50 [1] | Ki [2] | Increase (Rattus norvegicus [3]) | Increase (Rattus norvegicus [4]) | Ki [5] | Increase (Rattus norvegicus [6])
1 | COc1cccc2c1N1CCN(C)C[C@@H]1c1ccccc1C2 | 1.24 µM | 0.013 µM | 120% | 130% | 0.205 µM | –
2 | COc1cccc2c1N1CCN(C)C[C@H]1c1ccccc1C2 | 2.86 µM | 0.014 µM | 120% | 160% | 0.074 µM | 200%
3 | COc1cccc2c1N1CCN(C)CC1c1ccccc1C2 (racemic) | 1.78 µM | – | – | – | 0.084 µM | 200%
